We go through 33 compounds from US9670142B2, “1,3-diaminocyclopentane carboxamide derivatives” (Merck Patent GmbH, priority 2013, dated 2017).

Each structure is given as a SMILES string. pIC50: −log10 of the molar value. Bounds are passed on as bounds.

In the assay the target is human fatty acid synthase FASN (Homo sapiens (Human), UniProt P49327). In words: Biochemical activity testing of human fatty acid synthase FASN (NADPH fluorescence intensity enzyme assay). The following applies: human recombinant full-length fatty acid synthase. The procedure, abridged: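 In-house Sf9-expressed full-length enzyme (3 μL of 40 nM) in 50 mM potassium phosphate pH 7.0 with glutathione, BSA and Tween-20, plus NADPH (2 μL of 200 μM), preincubated ≥15 min with compound (10 concentrations from 30 μM final, 1% DMSO). Acetyl-CoA/malonyl-CoA added; NADPH fluorescence (ex 340/em 460 nm) read before and after 30 min at room temperature, difference used for IC50.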
Chain of human fatty acid synthase FASN (P49327 whole entry): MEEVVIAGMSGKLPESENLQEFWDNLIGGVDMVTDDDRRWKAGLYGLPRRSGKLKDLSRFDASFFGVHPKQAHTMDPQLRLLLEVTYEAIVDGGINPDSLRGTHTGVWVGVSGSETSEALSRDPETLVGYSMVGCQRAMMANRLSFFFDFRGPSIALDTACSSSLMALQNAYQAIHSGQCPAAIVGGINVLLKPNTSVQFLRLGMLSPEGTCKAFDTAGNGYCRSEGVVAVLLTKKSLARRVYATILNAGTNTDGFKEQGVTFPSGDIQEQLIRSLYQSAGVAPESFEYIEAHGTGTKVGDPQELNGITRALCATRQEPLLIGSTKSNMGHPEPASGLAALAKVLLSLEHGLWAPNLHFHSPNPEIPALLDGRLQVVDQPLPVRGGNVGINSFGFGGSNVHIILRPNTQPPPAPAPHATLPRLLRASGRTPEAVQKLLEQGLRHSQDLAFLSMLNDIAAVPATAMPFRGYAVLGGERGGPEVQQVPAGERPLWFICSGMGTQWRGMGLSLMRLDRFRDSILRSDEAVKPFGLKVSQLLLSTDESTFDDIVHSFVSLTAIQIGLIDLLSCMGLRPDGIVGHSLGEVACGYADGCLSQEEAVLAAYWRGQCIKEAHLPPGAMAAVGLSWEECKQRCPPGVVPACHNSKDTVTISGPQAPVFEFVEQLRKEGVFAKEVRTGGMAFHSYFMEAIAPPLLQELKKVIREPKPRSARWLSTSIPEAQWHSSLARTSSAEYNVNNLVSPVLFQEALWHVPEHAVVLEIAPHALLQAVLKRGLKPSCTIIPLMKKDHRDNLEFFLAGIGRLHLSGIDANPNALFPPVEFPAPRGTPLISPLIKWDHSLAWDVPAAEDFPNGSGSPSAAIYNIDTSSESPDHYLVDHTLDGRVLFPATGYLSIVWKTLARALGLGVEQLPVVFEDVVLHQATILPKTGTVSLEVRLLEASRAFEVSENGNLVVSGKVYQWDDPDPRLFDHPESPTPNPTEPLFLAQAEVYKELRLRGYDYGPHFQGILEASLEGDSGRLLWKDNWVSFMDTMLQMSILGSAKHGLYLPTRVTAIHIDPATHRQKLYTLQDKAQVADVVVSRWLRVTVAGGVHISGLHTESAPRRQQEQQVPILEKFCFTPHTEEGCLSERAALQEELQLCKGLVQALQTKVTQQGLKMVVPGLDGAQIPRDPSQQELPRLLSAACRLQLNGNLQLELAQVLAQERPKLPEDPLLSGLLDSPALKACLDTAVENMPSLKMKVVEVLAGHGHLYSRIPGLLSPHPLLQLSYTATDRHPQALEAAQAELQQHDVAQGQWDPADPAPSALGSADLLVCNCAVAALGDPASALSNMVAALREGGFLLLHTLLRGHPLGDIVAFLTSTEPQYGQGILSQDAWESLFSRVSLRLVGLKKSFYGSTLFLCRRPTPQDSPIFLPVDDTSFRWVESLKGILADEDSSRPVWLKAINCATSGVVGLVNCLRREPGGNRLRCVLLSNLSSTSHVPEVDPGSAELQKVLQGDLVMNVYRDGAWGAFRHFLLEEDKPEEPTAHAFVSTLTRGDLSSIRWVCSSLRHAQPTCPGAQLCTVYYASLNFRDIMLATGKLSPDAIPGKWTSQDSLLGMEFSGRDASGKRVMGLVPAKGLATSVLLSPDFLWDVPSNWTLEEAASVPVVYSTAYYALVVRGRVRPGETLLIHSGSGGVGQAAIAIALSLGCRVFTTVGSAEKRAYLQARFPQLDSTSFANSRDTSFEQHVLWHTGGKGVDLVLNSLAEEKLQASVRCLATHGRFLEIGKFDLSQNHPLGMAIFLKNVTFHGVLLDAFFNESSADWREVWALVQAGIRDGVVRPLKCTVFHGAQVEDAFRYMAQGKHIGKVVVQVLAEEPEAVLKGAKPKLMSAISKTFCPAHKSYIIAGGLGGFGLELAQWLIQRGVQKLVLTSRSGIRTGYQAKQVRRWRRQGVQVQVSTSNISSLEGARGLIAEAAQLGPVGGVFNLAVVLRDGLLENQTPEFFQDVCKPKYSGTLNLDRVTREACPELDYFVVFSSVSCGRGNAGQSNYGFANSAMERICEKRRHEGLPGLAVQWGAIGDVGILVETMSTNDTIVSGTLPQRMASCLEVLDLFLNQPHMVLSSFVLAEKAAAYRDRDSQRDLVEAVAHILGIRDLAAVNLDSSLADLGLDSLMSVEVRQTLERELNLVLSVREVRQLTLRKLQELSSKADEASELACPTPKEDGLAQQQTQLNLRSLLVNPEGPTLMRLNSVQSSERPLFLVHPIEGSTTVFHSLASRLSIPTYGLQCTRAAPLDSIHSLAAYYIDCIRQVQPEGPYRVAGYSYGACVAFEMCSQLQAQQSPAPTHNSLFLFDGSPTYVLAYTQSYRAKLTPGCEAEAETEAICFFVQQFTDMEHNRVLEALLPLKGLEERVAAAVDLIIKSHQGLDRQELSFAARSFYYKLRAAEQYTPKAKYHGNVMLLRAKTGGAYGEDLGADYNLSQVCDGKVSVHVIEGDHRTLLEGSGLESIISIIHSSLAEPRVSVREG
For `CCC(=O)N[C@H]1CC[C@@H](N(C)C(=O)c2ccc(-c3ccc4[nH]ccc4c3)c(C)c2)C1` [Compound A101, 4-(1H-indol-5-yl)-3,N-dimethyl-N-((1R,3S)-3-propionylamino-cyclopentyl)-benzamide], the pIC50 is greater than 6.52.
In the case of `CCC(=O)N[C@H]1CC[C@@H](N(C)C(=O)c2ccc(-c3cc4cn[nH]c4cc3C)cc2)C1` [Compound A102, N-methyl-4-(6-methyl-1H-indazol-5-yl)-N-((1R,3S)-3-propionylamino-cyclopentyl)-benzamide], the pIC50 was greater than 6.52.
For `CCC(=O)N[C@H]1CC[C@@H](N(C)C(=O)c2ccc(-c3cc4cn[nH]c4cc3C)cn2)C1` [Compound A103, 5-(6-methyl-1H-indazol-5-yl)-pyridine-2-carboxylic acid methyl-((1R,3S)-3-propionylamino-cyclopentyl)-amide], the pIC50 was 5.52 to 6.52.
The value for `CCC(=O)N[C@H]1CC[C@@H](N(C)C(=O)c2ccc(-c3cc(C)c4[nH]ncc4c3)cn2)C1` [Compound A104, 5-(7-methyl-1H-indazol-5-yl)-pyridine-2-carboxylic acid methyl-((1R,3S)-3-propionylamino-cyclopentyl)-amide] was greater than 6.52.
For `CCC(=O)N[C@H]1CC[C@@H](N(C)C(=O)c2ccc(-c3ccc4[nH]nc(C)c4c3)cn2)C1` [Compound A105, 5-(3-methyl-1H-indazol-5-yl)-pyridine-2-carboxylic acid methyl-((1R,3S)-3-propionylamino-cyclopentyl)-amide], the pIC50 was greater than 6.52.
Take `CCC(=O)N[C@H]1CC[C@@H](N(C)C(=O)c2ccc(-c3ccc4[nH]ccc4c3)cc2F)C1` [Compound A106, 2-fluoro-4-(1H-indol-5-yl)-N-methyl-N-((1R,3S)-3-propionylamino-cyclopentyl)-benzamide]: the pIC50 was greater than 6.52.
Consider `CCC(=O)N[C@H]1CC[C@@H](N(C)C(=O)c2ccc(-c3cc(C)c4[nH]ncc4c3)cc2)C1` [Compound A107, N-methyl-4-(7-methyl-1H-indazol-5-yl)-N-((1R,3S)-3-propionylamino-cyclopentyl)-benzamide], for which the pIC50 was greater than 6.52.
Regarding `CCC(=O)N[C@H]1CC[C@@H](N(C)C(=O)c2ccc(-c3ccc4c(ccn4C)c3)c(F)c2)C1` [Compound A108, 3-fluoro-N-methyl-4-(1-methyl-1H-indol-5-yl)-N-((1R,3S)-3-propionylamino-cyclopentyl)-benzamide], the pIC50 was greater than 6.52.
The value for `CCC(=O)N[C@H]1CC[C@@H](N(C)C(=O)c2ccc(-c3ccc4[nH]ccc4c3)cn2)C1` [Compound A109, 5-(1H-indol-5-yl)-pyridine-2-carboxylic acid methyl-((1R,3S)-3-propionylamino-cyclopentyl)-amide] was greater than 6.52; that for `CCC(=O)N[C@H]1CC[C@@H](N(C)C(=O)c2ccc(-c3ccc4c(ccn4C)c3)cn2)C1` [Compound A110, 5-(1-methyl-1H-indol-5-yl)-pyridine-2-carboxylic acid methyl-((1R,3S)-3-propionylamino-cyclopentyl)-amide] was greater than 6.52.
With `CCC(=O)N[C@H]1CC[C@@H](N(C)C(=O)c2ccc(-c3ccc4c(ccn4C)c3)cc2F)C1` [Compound A111, 2-fluoro-N-methyl-4-(1-methyl-1H-indol-5-yl)-N-((1R,3S)-3-propionylamino-cyclopentyl)-benzamide] the figure was greater than 6.52.
For `CCC(=O)N[C@H]1CC[C@@H](N(C)C(=O)c2ccc(-c3ccc4[nH]ccc4c3)c(F)c2)C1` [Compound A112, 3-fluoro-4-(1H-indol-5-yl)-N-methyl-N-((1R,3S)-3-propionylamino-cyclopentyl)-benzamide], the pIC50 was greater than 6.52.
As for `CCC(=O)N[C@H]1CC[C@@H](N(C)C(=O)c2ccc(-c3ccc4[nH]ccc4c3)nn2)C1` [Compound A113, 6-(1H-indol-5-yl)-pyridazine-3-carboxylic acid methyl-((1R,3S)-3-propionylamino-cyclopentyl)-amide], the pIC50 is greater than 6.52.
In the case of `CCC(=O)N[C@H]1CC[C@@H](N(C)C(=O)c2ccc(-c3ccc4c(ccn4C)c3)c(C)c2)C1` [Compound A114, 3,N-dimethyl-4-(1-methyl-1H-indol-5-yl)-N-((1R,3S)-3-propionylamino-cyclopentyl)-benzamide], the negative-log IC50 (pIC50) is greater than 6.52.
`CCC(=O)N[C@H]1CC[C@@H](N(C)C(=O)c2ccc(-c3ccc4[nH]cc(C)c4c3)cc2)C1` [Compound A115, N-methyl-4-(3-methyl-1H-indol-5-yl)-N-((1R,3S)-3-propionylamino-cyclopentyl)-benzamide]: the pIC50 is greater than 6.52.
For the compound `CCC(=O)N[C@H]1CC[C@@H](N(C)C(=O)c2ccc(-c3ccc4[nH]ccc4c3F)cc2)C1` [Compound A116, 4-(4-fluoro-1H-indol-5-yl)-N-methyl-N-((1R,3S)-3-propionylamino-cyclopentyl)-benzamide], the pIC50 was greater than 6.52.
The value for `CCC(=O)N[C@H]1CC[C@@H](N(C)C(=O)c2ccc(-c3ccc4[nH]ccc4c3)nc2)C1` [Compound A117, 6-(1H-indol-5-yl)-N-methyl-N-((1R,3S)-3-propionylamino-cyclopentyl)-nicotinamide] was greater than 6.52.
Turning to `CCC(=O)N[C@H]1CC[C@@H](N(C)C(=O)c2ccc(-c3ccc4c(ccn4C)c3)nn2)C1` [Compound A118, 6-(1-methyl-1H-indol-5-yl)-pyridazine-3-carboxylic acid methyl-((1R,3S)-3-propionylamino-cyclopentyl)-amide], the negative logarithm of the IC50 (pIC50) is greater than 6.52.
As for `CCC(=O)N[C@H]1CC[C@@H](N(C)C(=O)c2ccc(-c3ccc4c(ccn4C)c3)cc2C)C1` [Compound A119, 2,N-dimethyl-4-(1-methyl-1H-indol-5-yl)-N-((1R,3S)-3-propionylamino-cyclopentyl)-benzamide], the pIC50 was greater than 6.52.
In the case of `CCC(=O)N[C@H]1CC[C@@H](N(C)C(=O)c2ccc(-c3ccc4[nH]ccc4c3)cc2C)C1` [Compound A120, 4-(1H-indol-5-yl)-2,N-dimethyl-N-((1R,3S)-3-propionylamino-cyclopentyl)-benzamide], the pIC50 was greater than 6.52.
Regarding `CCC(=O)N[C@H]1CC[C@@H](N(C)C(=O)c2ccc(-c3cc(F)c4[nH]ccc4c3)cc2)C1` [Compound A121, 4-(7-fluoro-1H-indol-5-yl)-N-methyl-N-((1R,3S)-3-propionylamino-cyclopentyl)-benzamide], the pIC50 was greater than 6.52.
As to `CCC(=O)N[C@H]1CC[C@@H](N(C)C(=O)c2ccc(-c3cc4cc[nH]c4cc3F)cc2)C1` [Compound A122, 4-(6-fluoro-1H-indol-5-yl)-N-methyl-N-((1R,3S)-3-propionylamino-cyclopentyl)-benzamide], the pIC50 is greater than 6.52.
For the compound `CCC(=O)N[C@H]1CC[C@@H](N(C)C(=O)c2ccc(-c3nc4ccccc4n3C)cc2)C1` [Compound A123, N-methyl-4-(1-methyl-1H-benzimidazol-2-yl)-N-((1R,3S)-3-propionylamino-cyclopentyl)-benzamide], the pIC50 is greater than 6.52.
Take `CCC(=O)N[C@H]1CC[C@@H](N(C)C(=O)c2ccc(-c3ccc4[nH]ncc4c3C)c(C)c2)C1` [Compound A124, 3,N-dimethyl-4-(4-methyl-1H-indazol-5-yl)-N-((1R,3S)-3-propionylamino-cyclopentyl)-benzamide]: the pIC50 was greater than 6.52.
For `CCC(=O)N[C@H]1CC[C@@H](N(C)C(=O)c2cnc(-c3ccc4c(ccn4C)c3)cn2)C1` [Compound A125, 5-(1-methyl-1H-indol-5-yl)-pyrazine-2-carboxylic acid methyl-((1R,3S)-3-propionylamino-cyclopentyl)-amide], the pIC50 is greater than 6.52.
As for `CCC(=O)N[C@H]1CC[C@@H](N(C)C(=O)c2ccc(-c3ccc4[nH]ncc4c3C)cc2)C1` [Compound A126, N-methyl-4-(4-methyl-1H-indazol-5-yl)-N-((1R,3S)-3-propionylamino-cyclopentyl)-benzamide], the pIC50 is greater than 6.52.
For `CCC(=O)N[C@H]1CC[C@@H](N(C)C(=O)c2ccc(-c3nc4ccc(F)cc4o3)cc2)C1` [Compound A127, 4-(6-fluoro-benzoxazol-2-yl)-N-methyl-N-((1R,3S)-3-propionylamino-cyclopentyl)-benzamide], the pIC50 was greater than 6.52.
With `CCC(=O)N[C@H]1CC[C@@H](N(C)C(=O)c2ccc(-c3nc4ccc(Cl)cc4o3)cc2)C1` [Compound A128, 4-(6-chloro-benzoxazol-2-yl)-N-methyl-N-((1R,3S)-3-propionylamino-cyclopentyl)-benzamide], the pIC50 is greater than 6.52.
For `CCC(=O)N[C@H]1CC[C@@H](N(C)C(=O)c2ccc(-c3ccc4[nH]ccc4n3)cc2)C1` [Compound A129, N-methyl-N-((1R,3S)-3-propionylamino-cyclopentyl)-4-(1H-pyrrolo[3,2-b]pyridin-5-yl)-benzamide], the negative logarithm of the IC50 (pIC50) is greater than 6.52.
In the case of `CCC(=O)N[C@H]1CC[C@@H](N(C)C(=O)c2ccc(-c3ccc4[nH]cc(CN)c4c3)cc2)C1` [Compound A130, 4-(3-aminomethyl-1H-indol-5-yl)-N-methyl-N-((1R,3S)-3-propionylamino-cyclopentyl)-benzamide], the pIC50 was greater than 6.52.
Take `CCC(=O)N[C@H]1CC[C@@H](N(C)C(=O)c2ncc(-c3ccc4[nH]ccc4c3)cn2)C1` [Compound A131, 5-(1H-indol-5-yl)-pyrimidine-2-carboxylic acid methyl-((1R,3S)-3-propionylamino-cyclopentyl)-amide]: the pIC50 is greater than 6.52.
With `CCC(=O)N[C@H]1CC[C@@H](N(C)C(=O)c2cnc(-c3ccc4[nH]ccc4c3)cn2)C1` [Compound A132, 5-(1H-indol-5-yl)-pyrazine-2-carboxylic acid methyl-((1R,3S)-3-propionylamino-cyclopentyl)-amide], the pIC50 was greater than 6.52.
As to `CCC(=O)N[C@H]1CC[C@@H](N(C)C(=O)c2ncc(-c3ccc4c(ccn4C)c3)cn2)C1` [Compound A133, 5-(1-methyl-1H-indol-5-yl)-pyrimidine-2-carboxylic acid methyl-((1R,3S)-3-propionylamino-cyclopentyl)-amide], the pIC50 was greater than 6.52.

Usually pIC50 stands for the IC50 on a negative log10 scale, so that one unit is a factor of ten.
